Read-outs that look alike come from different tables or passages of the source.
Experiments:
[1] = EFSA / Scientific Committee on Food opinion 2002; cited from earlier work
[2] = test system: tasters; assay: Tasting of esters of homovanillinic acid: pungency score and profile (Example 5); format: in vivo; details: for Pungency assessed: scale of 1 (very weak)-9 (very strong)
[3] = test system: tasters; assay: as above; format: in vivo; details: 25 ppm in 5% sugar solution; for Pungency assessed: scale of 1 (very weak)-9 (very strong), 4 tasters
Experimental: The substance to be tasted was dissolved in ethanol and the ethanolic solution was then diluted with 5% sugar solution (final concentration: 25 ppm). For the tasting, the oral cavity was rinsed and spat out by 4 tasters with approx. 5 ml of the sugar solution.

[4] = Warming effect compared to vanillyl butyl ether (Example 11); format: in vivo; details: 4-10 ppm in 5% sugar solution vs 10 ppm vanillyl butyl ether
Excerpt: Test solutions with 4-10 ppm ester of homovanillic acid were sensorially evaluated in a 5% sugar solution and were compared to a test solution of 10 ppm vanillyl butyl ether.

[5] = test system: testers; assay: Increase in the alcohol pungency of an ethanolic solution (Example 10); format: in vivo
Experimental: On the basis of a 5% sugar solution with 20% ethanol (example 1), different concentrations (10-100 ppm) of ethyl-2-(4-hydroxy-3-methoxyphenyl) acetate (17), polymethoxylated flavone PMF 60 (Miritz) and combinations (10-50 ppm) of ethyl-2-(4-hydroxy-3-methoxyphenyl) acetate (17) with polymethoxylated flavone PMF 60 (Miritz) (20 ppm) were compared with a second base solution (5% sugar solution with 40% ethanol) (Tab. 4). To this end, 5 testers rinsed their mouth with about 5 ml of the relevant solution to be tasted, spat out the solution and assessed the taste sensation.

[6] = Tasting and sensorial assessment of isolated ethyl homovanillate (17) (Example 2); format: in vivo
Experimental: The primary reaction mixture is pre-fractionated using medium-pressure liquid chromatography (MPLC) (column material: Lewatit VP OC 1064; water/ethanol 3/1; v/v). Subsequently, further separation is carried out via preparative high-pressure liquid chromatography (pHPLC) (column: Phenomenex Luna C18 5μ 150×21.2 mm, flow rate 30 ml/min, detection 210 nm) in the isocratic mode (63% H2O, 37% MeOH). Final isolation of ethyl homovanillate (17) is carried out via semi-preparative high-pressure liquid chromatography (sPHPLC) in the gradient mode (column: YMC Triart C18 5μ 250×10 mm; A: H2O; B: MeOH; 0 min 65% A, 35% B; 25 min 40% A, 60% B; 30 min 100% B; flow rate 3 ml/min; detection: 250 nm). The obtained ethyl homovanillate (17) was subsequently freeze-dried and tasted and sensorially assessed at a dosage of 100 ppm in 5% sugar solution, 0.5% salt solution, 500 ppm caffeine solution and water.

[7] = test system: testers; assay: Sensorial assessment of combinations with grains of paradise extract, nonivamide and capsicum extract (Example 9); format: in vivo; details: for Effect in combination of nonivamide, capsicum extract and ester: versus combinations without esters (examples 26* and 28*)
[8] = test system: rat eyes; details: Szolcsanyi, Jancso-Gabor 1975; cited from earlier work
[9] = test system: trained panelists; assay: Time vs. intensity pungency profile compared with nonivamide (Example 8); format: in vivo; details: 25 ppm vs 0.5 ppm nonivamide in 5% sugar solution
Experimental: To obtain a time vs. intensity profile, trained panelists (n=8-10) rinsed their oral cavity with a gulp of a sample solution (5 ml of a 5% sugar solution). Then, the intensity of the characteristic pungency was assessed at defined time intervals on the basis of a scale without fixed graduation.

[10] = test system: tasters; assay: Isointensity of esters compared to nonivamide and a capsicum extract (Example 6); format: in vivo; details: 10 ppm of the ester in 5% sugar solution
Experimental: The substance to be tasted was dissolved in ethanol and the ethanolic solution was then diluted with 5% sugar solution (final concentration: 10 ppm). As reference, capsicum extract with 1,000,000 SHU (0.3-10 ppm) and nonivamide (0.1-1 ppm) were prepared in 5% sugar solution in increasing concentration. For the tasting, the oral cavity was rinsed and spat out by 4 tasters with approx. 5 ml of the solution to be tasted and assessed against the reference series.

[11] = 50 and 100 ppm (examples 17 and 18)

## COc1cc(CNC(=O)CCCC/C=C/C(C)C)ccc1O [capsaicin, N-(4-hydroxy-3-methoxybenzyl)-8-methyl-(6E)-nonenoic acid amide]
[1]
  Evaluation of the genotoxic potential: negative result

## COc1cc(CC(=O)OC/C=C/c2ccccc2)ccc1O [compound 2, [(E)-Cinnamyl]-2-(4-hydroxy-3-methoxyphenyl) acetate]
[2]
  Profile: delayed effect, very pungent, slightly warming, somewhat mouthwatering
  Pungency assessed: 5-6

## COc1cc(CC(=O)OC(C)C)ccc1O [compound 7, Isopropyl-2-(4-hydroxy-3-methoxyphenyl) acetate]
[3]
  Profile: Late onset, tingling, warming, pungent, somewhat delayed, not long-lasting, pleasant
  Pungency assessed: 3

## CCC(C)OC(=O)Cc1ccc(O)c(OC)c1 (stereo not drawn) [compound 8, sec-Butyl-2-(4-hydroxy-3-methoxyphenyl) acetate]
[3]
  Profile: very delayed onset, tingling, mainly warming, gradually increasing pungency
  Pungency assessed: 3

## COc1cc(CC(=O)OCC(C)C)ccc1O [compound 9, Isobutyl-2-(4-hydroxy-3-methoxyphenyl) acetate]
[4]
  Warming effect compared to vanillyl butyl ether: warming effect similar to vanillyl butyl ether, but which lasted for a longer period
[3]
  Profile: quick onset of pungency, warming, slightly biting pungency
  Pungency assessed: 4-5

## CCCCCCCOC(=O)Cc1ccc(O)c(OC)c1 [compound 14, Heptyl-2-(4-hydroxy-3-methoxyphenyl) acetate]
[2]
  Profile: slightly delayed effect, burning, pungent, warming
  Pungency assessed: 3

## CCOC(=O)Cc1ccc(O)c(OC)c1 [compound 17, Ethyl-2-(4-hydroxy-3-methoxyphenyl) acetate]
[4]
  Warming effect compared to vanillyl butyl ether: milder warming effect
[5]; 10-50 ppm with 20 ppm PMF 60 in 5% sugar solution with 20% ethanol (examples 7-9)
  Effect of combination with polymethoxylated flavone PMF 60: an increase of the burning sensation was additionally generated, and an extension of these effects was also achieved
[5]; 10 ppm in 5% sugar solution with 20% ethanol (example 2)
  Effect on taste sensation of base solution: an increase and an extension of the burning sensation in the mouth
[5]; 20 ppm and 50 ppm in 5% sugar solution with 20% ethanol
  Effect on taste sensation of base solution: additional pungency effect
[5]; compared to 5% sugar solution with 40% ethanol
  Nasal effect of combination with PMF 60: did not show any nasal effect
[5]; with 20 ppm PMF 60 in 5% sugar solution with 20% ethanol
  Sensorially preferred concentration in combination with PMF 60: 20-50 ppm
[6]; 100 ppm in 0.5% salt solution
  Taste description: Pungent
[6]; 100 ppm in 5% sugar solution
  Taste description: Pungent, warming
[6]; 100 ppm in water
  Taste description: Pungent, stinging, slightly warming
[7]; 2 and 5 ppm capsicum extract with 1,000,000 SHU
  Additional effect in combination with capsicum extract at all concentrations: pleasantly warming effect, which remained even after the pungency sensation receded
[7]; 10 and 25 ppm with 30 ppm grains of paradise extract, 5% sugar solution (examples 2 and 3)
  Effect on pungency in combination with grains of paradise extract: faster onset of the pungency
[7]; [11]
  Assessment of the pungency sensation in combination with 2 ppm capsicum extract: pleasant and not long-lasting
  Effect on pungency in combination with 2 ppm capsicum extract with 1,000,000 SHU: same intensifying and faster onsetting effect
[7]; 50 and 100 ppm (examples 22 and 23)
  Effect on pungency in combination with 5 ppm capsicum extract with 1,000,000 SHU: quick decline in the pungency
[7]; 50 and 100 ppm with 0.2 or 0.5 ppm nonivamide
  Onset of pungency in combination with nonivamide: faster onset of the pungency
[7]; 50 and 100 ppm with 0.2 or 0.5 ppm nonivamide (examples 7, 8, 12, 13)
  Intensification of pungency in combination with nonivamide: the pungency of nonivamide was intensified at both of the tested concentrations, wherein this intensification corresponded to more than just the additive effect
[7]; combination with capsicum extract with 1,000,000 SHU
  Intensification of the pungency, 2 ppm versus 5 ppm capsicum extract: significantly higher with 2 ppm capsicum extract with 1,000,000 SHU than with 5 ppm
[7]
  Effect in combination of nonivamide, capsicum extract and ester: quicker decline in the pungency sensation as well as a warming effect
[3]
  Profile: slightly warming, somewhat pungent
  Pungency assessed: 1-2

## CCCOC(=O)Cc1ccc(O)c(OC)c1 [compound 18, Propyl-2-(4-hydroxy-3-methoxyphenyl) acetate]
[4]
  Warming effect compared to vanillyl butyl ether: long-lasting warming effect, but which occurred at a comparatively later time
[8]
  Pain sensation in rat eyes: active
[3]
  Profile: weak and delayed pungency, gradually warming, tingling
  Pungency assessed: 4-5

## CCCCOC(=O)Cc1ccc(O)c(OC)c1 [compound 19, Butyl-2-(4-hydroxy-3-methoxyphenyl) acetate]
[4]
  Warming effect compared to vanillyl butyl ether: more marked warming effect
[9]
  Decrease in pungency compared with nonivamide: considerably faster decrease in pungency
[9]; identical total intensity
  Onset of the pungency compared with nonivamide: faster onset of the pungency
[7]; 10 and 25 ppm with 2 or 5 ppm capsicum extract
  Intensification in combination with capsicum extract versus additive effect: the intensifications were more significant than just an additive effect
[7]; 10 and 25 ppm with 2 or 5 ppm capsicum extract (examples 19, 20, 24, 25)
  Effects in combination with capsicum extract: the same effects were detected even at lower concentrations
[7]
  Effect in combination of nonivamide, capsicum extract and ester: quicker decline in the pungency sensation as well as a warming effect
[3]
  Profile: immediate pungency, quick decrease
  Pungency assessed: 7
[10]
  Concentration of capsicum extract with 1,000,000 SHU of comparable pungency: ~4.5 ppm
  Nonivamide concentration of comparable pungency: ~0.3 ppm

## CCCCCCOC(=O)Cc1ccc(O)c(OC)c1 [compound 21, Hexyl-2-(4-hydroxy-3-methoxyphenyl) acetate]
[3]
  Profile: clearly pungent, slightly delayed effect, warming, relatively fast decrease in pungency
  Pungency assessed: 9
[10]
  Concentration of capsicum extract with 1,000,000 SHU of comparable pungency: ~8.5 ppm
  Nonivamide concentration of comparable pungency: ~0.5 ppm

## COc1cc(CC(=O)OCCCc2ccccc2)ccc1O [compound 22, 3-Phenylpropyl-2-(4-hydroxy-3-methoxyphenyl) acetate]
[2]; 2 ppm in 5% sugar solution
  Profile: delayed effect, pungent, warming, slightly tingling
  Pungency assessed: 5

## COc1cc(CC(=O)OCCCCc2ccccc2)ccc1O [compound 23, 4-Phenylbutyl-2-(4-hydroxy-3-methoxyphenyl) acetate]
[2]; 2.5 ppm in 5% sugar solution
  Profile: delayed effect, pungent, delayed warming, burning, slightly tingling
  Pungency assessed: 4-5

## CCCCCCCCCCOC(=O)Cc1ccc(O)c(OC)c1 [decyl-2-(4-hydroxy-3-methoxyphenyl) acetate, reference compound]
[3]
  Profile: weakly pungent, delayed, pear-like and greasy-pulpy secondary effect, throat burns more than the tongue
  Pungency assessed: 2

## COC(=O)Cc1ccc(O)c(OC)c1 [methyl ester of homovanillic acid]
[8]
  Pain sensation in rat eyes: active

## CCCCCCCCOC(=O)Cc1ccc(O)c(OC)c1 [octyl-2-(4-hydroxy-3-methoxy-phenyl) acetate, reference compound]
[8]
  Pain sensation in rat eyes: active
[3]
  Profile: slow onset of pungency, late, delayed, greasy-pulpy secondary effect, burning
  Pungency assessed: 7

Reference: patent publication US11535584B2, “Homovanillinic acid ester, in particular for creating a warm and/or pungent sensation” (SYMRISE AG, priority 2014, dated 2022)
